According to patent publication US10973819B2, “Small molecules inhibitors of RAD51” (The University of Chicago, priority 2016, dated 2021):
Like-named read-outs stand apart in the source and are kept apart here.

Experiments:
[1] = biological target: T1, RAD51 (Homo sapiens, UniProt Q06609); assay: Gel-based D-loop assay; assay type: biochemical; conditions: for IC50: read-out: D-Loops IC50; for D-loop inhibitory activity, in words: summary of Tables 2 and 3
T1 sequence (Q06609 1-339): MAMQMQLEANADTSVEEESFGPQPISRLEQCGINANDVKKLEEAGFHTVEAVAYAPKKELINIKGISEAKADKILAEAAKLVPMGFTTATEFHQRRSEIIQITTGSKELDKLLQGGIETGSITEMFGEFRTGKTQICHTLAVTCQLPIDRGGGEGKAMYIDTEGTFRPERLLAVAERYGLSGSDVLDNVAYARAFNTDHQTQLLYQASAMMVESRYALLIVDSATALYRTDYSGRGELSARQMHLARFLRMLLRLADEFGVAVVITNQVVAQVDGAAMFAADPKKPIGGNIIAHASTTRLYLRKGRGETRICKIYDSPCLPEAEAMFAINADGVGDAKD
Method: Human RAD51 in reaction buffer was combined with compound in […] DMSO, incubated at 37° C. for 10 min, and then 1 μl of 5′-^32P-labeled 90-mer ssDNA (5′-[…]) with homology to the plasmid pRS306 ^34 was added and the reaction was incubated at 37° C. for an additional 5 minutes. 1 μl of supercoiled pRS306 was then added to the reaction and incubated at 37° C. for 20 minutes; at this point the reaction consisted of 25 mM HEPES-NaOH (pH 7.0), 1 mM ATP, 1 mM MgCl2, 1 mM DTT, 1.5 μM BSA, 4.5% DMSO, 0.5 μM RAD51, 11 mM NaCl, 1% glycerol, 20 nM ssDNA, and 5 nM pRS306. The reactions were de-proteinized with 0.8% SDS and 0.8 mg/ml proteinase K, mixed with gel loading buffer, and run on a 0.9% agarose/1×TAE gel, which was dried and exposed to a phosphor screen overnight and imaged on a Storm 860 PhosphorImager. Compound IC50 values were obtained by least-squares regression fitting of appropriate linear, log, or sigmoid dose-response models to the data, with the standard error indicated.
To improve upon the D-loop inhibitory activity, medicinal chemical studies were undertaken to optimize 8. First, different functional groups were appended to rings A and B as substituents, including alkyl groups of different sizes, electron withdrawing/donating groups, and hydrogen bond donor/acceptor groups. Next, replacement of the phenyl ring B with different heterocycles or other saturated/unsaturated rings was investigated in order to probe its role. For each of the prepared compounds, the gel-based D-loop assay and the microplate-based DNA binding assay were used to characterize the biochemical activities.

[2] = biological target: T1, RAD51; assay: Fluorescence polarization-based DNA binding assay (RAD51-ssDNA binding); assay type: biochemical; conditions: for ssDNA binding IC50 / IC50: Stim = stimulator; for Emax: read-out: ssDNA binding Max effect; for influence on RAD51-ssDNA binding, in words: summary of Tables 2 and 3
Method: The fluorescence polarization-based DNA binding assay and purification of human RAD51 used for this assay was performed as previously described with a few modifications.^23 Reactions were carried out in black 384-well polystyrene plates. In each well, RAD51 protein was combined with reaction buffer and varying concentrations of compound in DMSO in an initial volume of 40 μl and incubated at 37° C. for 40 minutes. Then, 10 μl of reaction buffer containing fluorescently-labeled ssDNA substrate (5′-Alexa488-oligo-dT45) was added and the reaction incubated at 37° C. for another 40 minutes, after which the plate was read on a Tecan Infinite 200 Pro plate reader equipped with two sets of 485±25 nm/535±35 nm with parallel or perpendicularly-oriented polarization filters. In both steps of the reaction setup, buffer components were maintained at 20 mM HEPES-NaOH (pH 7.5), 2 mM ATP, 10 mM MgCl2, 0.1 mM TCEP-HCl (tris(2-carboxyethyl)phosphine), and 0.25 μM BSA. The final reaction contained 4% DMSO, 0.2 μM RAD51, 30 mM NaCl, 2% glycerol, and 2.22 nM ssDNA substrate. Compound IC50 values were obtained by least-squares regression fitting of appropriate linear, log, or sigmoid dose-response models to the data, with the standard error indicated. […]

[3] = Table 2, cells marked ↑: compound stimulates RAD51-ssDNA binding
[4] = Table 2, cells marked ↓: compound inhibits RAD51-ssDNA binding

Row | SMILES | IC50 ([1]; Table 2) | ssDNA binding IC50 ([2]; Table 2) | Emax [2, 3] | influence on RAD51-ssDNA binding, in words [2] | Emax [2, 4] | also measured
1 | COc1ccc2c(c1)nc(-c1ccc(N(C)C)cc1)c1cccn12 [Compound 8, 4-(7-Methoxypyrrolo[1,2-a]quinoxalin-4-yl)-N,N-dimethylaniline] |  |  |  |  |  | D-Loops Max inhibition effect ([1]; Table 1): 67%; IC50 ([1]; Table 1): 13 µM; ssDNA binding IC50 ([2]; Table 1): Stim; Emax ([2]; Table 1, cells marked ↑: compound stimulates RAD51-ssDNA binding): 40 ± 28%
2 | CN(C)c1ccc(-c2nc3ccccc3n3cccc23)cc1 [Compound 9a, N,N-dimethyl-4-(pyrrolo[1,2-a]quinoxalin-4-yl)aniline] | 27.6 ± 6 µM | Stim | 88 ± 22% | modest influence |  | 
3 | O=[N+]([O-])c1cccc(-c2nc3ccccc3n3cccc23)c1 [Compound 9b, 4-(3-Nitrophenyl)pyrrolo[1,2-a]quinoxaline] |  |  |  | modest influence | 52 ± 14% | 
4 | Nc1cccc(-c2nc3ccccc3n3cccc23)c1 [Compound 9c, 3-(Pyrrolo[1,2-a]quinoxalin-4-yl)aniline] | 91.1 ± 10.3 µM |  |  |  | 11 ± 9% | 
5 | Oc1ccc(-c2nc3ccccc3n3cccc23)cc1 [Compound 9d] |  |  |  |  | 14 ± 16% | 
6 | FC(F)(F)Oc1ccc(-c2nc3ccccc3n3cccc23)cc1 [Compound 9e, 4-(4-(Trifluoromethoxy)phenyl)pyrrolo[1,2-a]quinoxaline] |  | Stim | 30 ± 21% |  |  | 
7 | O=[N+]([O-])c1ccc(-c2nc3ccccc3n3cccc23)cc1 [Compound 9f, 4-(4-Nitrophenyl)pyrrolo[1,2-a]quinoxaline] |  |  |  |  | 16 ± 13% | 
8 | Nc1ccc(-c2nc3ccccc3n3cccc23)cc1 [Compound 9g, 4-(Pyrrolo[1,2-a]quinoxalin-4-yl)aniline] | 22.1 µM |  |  |  | 18 ± 11% | IC50 ([2]; Table 2): > 100 µM
9 | c1ccc2c(c1)nc(-c1ccc(N3CCCC3)cc1)c1cccn12 [Compound 9i, 4-(4-(Pyrrolidin-1-yl)phenyl)pyrrolo[1,2-a]quinoxaline] |  | Stim | 69 ± 35% | modest influence |  | 

The next lines start with results.

Row | IC50 ([1]; Table 2) | ssDNA binding IC50 ([2]; Table 2) | Emax [2, 3] | influence on RAD51-ssDNA binding, in words [2] | Emax [2, 4] | SMILES | also measured
10 | 27.2 ± 3 µM |  |  |  | 11 ± 19% | c1ccc2c(c1)nc(-c1ccc(N3CCOCC3)cc1)c1cccn12 [Compound 9j, 4-(4-(Pyrrolo[1,2-a]quinoxalin-4-yl)phenyl)morpholine] | D-Loops Max inhibition effect ([1]; Table 2): 68 ± 7%
11 | 71.7 ± 18.1 µM |  |  |  | 6 ± 10% | c1cncc(-c2nc3ccccc3n3cccc23)c1 [Compound 11a, 4-(Pyridin-3-yl)pyrrolo[1,2-a]quinoxaline] | D-loop inhibitory activity, in words [1]: moderate; IC50 ([2]; Table 2): > 100 µM
12 | 79.4 ± 6 µM |  |  |  | 7 ± 38% | c1ccc2c(c1)nc(-c1ccncc1)c1cccn12 [Compound 11b, 4-(Pyridin-4-yl)pyrrolo[1,2-a]quinoxaline] | D-loop inhibitory activity, in words [1]: moderate
13 |  | Stim | 42 ± 17% | modest influence |  | C1=C(c2nc3ccccc3n3cccc23)CCCC1 [Compound 11c, 4-(Cyclohex-1-en-1-yl)pyrrolo[1,2-a]quinoxaline] | D-loop inhibitory activity, in words [1]: weak
14 |  | Stim | 56 ± 31% | modest influence |  | c1ccc2c(-c3nc4ccccc4n4cccc34)cccc2c1 [Compound 11d, 4-(Naphthalen-1-yl)pyrrolo[1,2-a]quinoxaline] | D-loop inhibitory activity, in words [1]: weak
